# Laboratory results from publication PMC2806265, “Divergence of allosteric effects of rapacuronium on binding and function of muscarinic receptors” (BMC Pharmacology, 2009).
# Marks after values point to notes of the source that are not given here.
# What was measured:
# [1] = molecular target: T1, M1 muscarinic receptor (Homo sapiens, UniProt P11229); assay: [3H]ACh saturation binding
# T1 construct: host or cells: CHO cells, stably transfected; membrane preparation
# T1 sequence (P11229 1-460): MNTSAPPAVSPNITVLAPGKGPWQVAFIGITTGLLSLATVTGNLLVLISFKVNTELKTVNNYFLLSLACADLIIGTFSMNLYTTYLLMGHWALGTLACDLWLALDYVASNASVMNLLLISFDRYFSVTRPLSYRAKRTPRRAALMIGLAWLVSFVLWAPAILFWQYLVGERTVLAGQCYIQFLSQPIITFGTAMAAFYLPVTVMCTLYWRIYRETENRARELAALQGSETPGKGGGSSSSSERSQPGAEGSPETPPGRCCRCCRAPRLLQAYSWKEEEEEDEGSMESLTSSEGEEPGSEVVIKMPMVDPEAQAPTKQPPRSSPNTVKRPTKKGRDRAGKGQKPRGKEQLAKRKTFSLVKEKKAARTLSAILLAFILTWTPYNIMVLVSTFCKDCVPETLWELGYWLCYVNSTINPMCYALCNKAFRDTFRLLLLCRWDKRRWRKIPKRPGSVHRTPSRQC
# Description: (§1) BMAX, maximum binding capacity; KD, equilibrium dissociation constant.
# [2] = molecular target: T2, M3 muscarinic receptor (Homo sapiens, UniProt P20309); assay: [3H]ACh saturation binding
# T2 construct: host or cells: CHO cells, stably transfected; membranes
# T2 sequence (P20309 whole entry): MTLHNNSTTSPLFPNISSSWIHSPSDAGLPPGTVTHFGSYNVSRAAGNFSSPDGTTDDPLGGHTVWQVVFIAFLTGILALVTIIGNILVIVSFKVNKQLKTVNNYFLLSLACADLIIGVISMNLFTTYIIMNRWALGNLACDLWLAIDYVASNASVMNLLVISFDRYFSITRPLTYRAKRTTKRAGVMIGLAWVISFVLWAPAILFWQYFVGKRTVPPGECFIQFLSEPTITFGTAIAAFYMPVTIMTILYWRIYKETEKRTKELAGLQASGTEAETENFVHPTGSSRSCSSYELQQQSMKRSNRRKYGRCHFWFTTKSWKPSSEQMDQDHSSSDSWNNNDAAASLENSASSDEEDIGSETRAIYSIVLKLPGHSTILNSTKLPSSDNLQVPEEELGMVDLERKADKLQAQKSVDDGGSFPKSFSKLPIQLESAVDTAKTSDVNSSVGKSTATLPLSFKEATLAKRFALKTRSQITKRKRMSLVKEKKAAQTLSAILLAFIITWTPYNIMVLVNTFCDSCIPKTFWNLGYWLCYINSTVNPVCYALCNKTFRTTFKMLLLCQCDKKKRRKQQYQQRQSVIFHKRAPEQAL
# Description: as §1
# [3] = molecular target: T2, M3 muscarinic receptor; assay: biochemical; details: for EMAX of ACh on [^35S]GTPγS binding: fold of basal
# Description: For determination of [^35S]GTPγS binding to G-proteins in membranes a final concentration of 200 pM (M1, M3 and M5 receptors) or 500 pM (M2 and M4 receptors) of [^35S]GTPγS was used. Incubation medium was supplemented with 5 μM (M1, M3 and M5 receptors) or 50 μM (M2 and M4 receptors) GDP. […] Incubation with [^35S]GTPγS was carried out for 20 min and free ligand was removed by filtration as described above. Filtration and washing with ice-cold water lasted for 9 s (wash-aspirate button time).
# [4] = molecular target: T3, M2 muscarinic receptor (Homo sapiens, UniProt P08172); assay: [3H]NMS dissociation
# T3 sequence (P08172 1-466): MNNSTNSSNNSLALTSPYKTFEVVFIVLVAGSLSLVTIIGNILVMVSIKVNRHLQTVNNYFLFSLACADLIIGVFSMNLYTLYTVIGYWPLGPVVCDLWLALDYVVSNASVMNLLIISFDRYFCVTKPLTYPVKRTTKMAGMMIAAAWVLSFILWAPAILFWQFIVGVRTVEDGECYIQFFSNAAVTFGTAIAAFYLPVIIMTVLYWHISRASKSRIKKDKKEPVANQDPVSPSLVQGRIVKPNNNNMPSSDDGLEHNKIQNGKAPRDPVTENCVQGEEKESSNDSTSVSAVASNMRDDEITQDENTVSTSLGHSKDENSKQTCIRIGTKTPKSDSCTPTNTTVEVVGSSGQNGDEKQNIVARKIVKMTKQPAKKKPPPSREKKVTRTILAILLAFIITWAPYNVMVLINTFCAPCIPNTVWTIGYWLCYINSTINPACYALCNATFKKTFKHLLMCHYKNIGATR
# Description: y, radioligand binding at time x normalized to binding at time 0; koff1 and koff2, dissociation rate constants; f2, fraction of binding site with dissociation rate constant koff2. When both Eq. 7a and 7b were fitted to data the better fit was chosen based on sum of squares F-test and runs test.
# [5] = molecular target: T4, M4 muscarinic receptor (Homo sapiens, UniProt P08173); assay: Effect of rapacuronium on low-affinity ACh binding ([3H]NMS + GTPγS + ACh); set-up: host or cells: CHO cells, stably transfected; membranes
# T4 sequence (P08173 1-479): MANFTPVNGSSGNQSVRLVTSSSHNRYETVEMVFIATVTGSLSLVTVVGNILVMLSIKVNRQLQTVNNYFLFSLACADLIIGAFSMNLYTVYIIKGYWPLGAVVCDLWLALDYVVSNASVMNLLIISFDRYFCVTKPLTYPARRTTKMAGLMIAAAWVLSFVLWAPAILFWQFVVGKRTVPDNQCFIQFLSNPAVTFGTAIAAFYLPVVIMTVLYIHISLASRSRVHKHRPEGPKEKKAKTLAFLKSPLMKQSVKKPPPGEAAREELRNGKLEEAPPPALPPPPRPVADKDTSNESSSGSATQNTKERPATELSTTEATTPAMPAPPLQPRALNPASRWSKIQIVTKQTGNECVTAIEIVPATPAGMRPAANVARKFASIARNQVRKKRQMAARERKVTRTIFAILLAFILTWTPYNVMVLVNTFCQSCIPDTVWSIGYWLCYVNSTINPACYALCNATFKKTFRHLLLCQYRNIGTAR
# Description: (§2) […]. Data are expressed as percent of specific binding in the absence of rapacuronium. […]. […] Data are means ± SE from 3 independent experiments performed in quadruplicates. Curves are fits of Eq. 3 (circles) and Eq. 4 (squares and triangles) to data prior to normalization.
# (§3) […]. […] […].
# [6] = molecular target: T5, M5 muscarinic receptor (Homo sapiens, UniProt P08912); assay: as above; set-up: host or cells: CHO cells, stably transfected; membranes
# T5 sequence (P08912 1-532): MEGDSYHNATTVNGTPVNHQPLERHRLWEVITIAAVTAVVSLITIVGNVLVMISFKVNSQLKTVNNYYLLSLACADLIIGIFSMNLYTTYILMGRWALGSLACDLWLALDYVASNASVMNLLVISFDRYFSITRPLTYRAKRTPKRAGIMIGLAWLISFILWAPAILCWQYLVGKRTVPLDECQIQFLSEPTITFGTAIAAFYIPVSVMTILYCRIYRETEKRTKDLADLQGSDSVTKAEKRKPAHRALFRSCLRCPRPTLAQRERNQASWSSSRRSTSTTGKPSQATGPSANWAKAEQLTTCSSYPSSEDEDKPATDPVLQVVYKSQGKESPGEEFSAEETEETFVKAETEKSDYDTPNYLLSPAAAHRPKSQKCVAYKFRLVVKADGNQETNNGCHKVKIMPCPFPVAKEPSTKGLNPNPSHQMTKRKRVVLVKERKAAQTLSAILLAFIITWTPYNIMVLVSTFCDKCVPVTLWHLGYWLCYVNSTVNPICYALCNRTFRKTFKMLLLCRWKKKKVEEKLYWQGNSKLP
# Description: as §2, §3
# [7] = molecular target: T3, M2 muscarinic receptor; assay: as above; set-up: host or cells: CHO cells, stably transfected; membrane preparation
# Description: Data are expressed as percent of specific binding in the absence of rapacuronium. […] Data are means ± SE from 3 independent experiments performed in quadruplicates. Curves are fits of Eq. 3 (circles) and Eq. 4 (squares and triangles) to data prior to normalization.
smiles,measurement,setting,value
C=CC[N+]1([C@H]2C[C@H]3[C@@H]4CC[C@H]5C[C@H](OC(C)=O)[C@@H](N6CCCCC6)C[C@]5(C)[C@H]4CC[C@]3(C)[C@H]2OC(=O)CC)CCCCC1 [rapacuronium],BMAX of [^3H]ACh,[1]; + 10 μM rapacuronium,0.33 ± 0.05 fmol/μg of protein
same,BMAX of [^3H]ACh,[1]; + 100 μM rapacuronium,0.32 ± 0.05 fmol/μg of protein
same,BMAX of [^3H]ACh,[2]; + 10 μM rapacuronium,0.40 ± 0.04 fmol/μg of protein
same,BMAX of [^3H]ACh,[2]; + 100 μM rapacuronium,0.37 ± 0.05 fmol/μg of protein
same,decrease in ACh EC50,[3]; 0.1 μM rapacuronium,2 fold
same,decrease in ACh EC50,[3]; 1 μM rapacuronium,2 fold
same,increase in ACh EC50,[3]; 10 μM rapacuronium,about 3 fold
same,EMAX of ACh on [^35S]GTPγS binding,[3]; + 0.1 μM rapacuronium,2.78 ± 0.11
same,EMAX of ACh on [^35S]GTPγS binding,[3]; + 1 μM rapacuronium,2.52 ± 0.08
same,EMAX of ACh on [^35S]GTPγS binding,[3]; + 10 μM rapacuronium,2.12 ± 0.09
same,EMAX of rapacuronium on [^35S]GTPγS binding,"[3]; rapacuronium alone, normalized to absence of rapacuronium",0.75 ± 0.07
same,EC50,"[3]; rapacuronium alone, read-out: EC50 of lowering [^35S]GTPγS binding",76 µM
same,Emax at 0.1 µM,"[3]; read-out: increase in ACh EMAX, 0.1 μM rapacuronium",~60%
same,Emax at 1 µM,"[3]; read-out: increase in ACh EMAX, 1 μM rapacuronium",~35%
same,decrease in rate of [^3H]NMS dissociation,[4]; 100 μM rapacuronium,7 fold
same,"f2, fraction of sites with faster dissociation",[4]; + 100 μM rapacuronium,23 ± 5%
same,koff1 of [^3H]NMS dissociation,[4]; + 100 μM rapacuronium,0.026 ± 0.002* min^-1
same,koff2 of [^3H]NMS dissociation,[4]; + 100 μM rapacuronium,0.0127 ± 0.00183 s⁻¹
same,Kd,[5],3.24 µM
same,decrease in ACh low-affinity binding (cooperativity),[5]; M4,36 times
same,"pβ, cooperativity with ACh low affinity binding","[5]; M4, negative value = negative cooperativity",-1.56 ± 0.07
same,Kd,[6],11.2 µM
same,"pβ, cooperativity with ACh low affinity binding","[6]; M5, negative value = negative cooperativity",-1.28 ± 0.07
same,"pβ, cooperativity with ACh low affinity binding","[7]; M2, negative value = negative cooperativity",-1.52 ± 0.06
same,Kd,[7]; read-out: pKA of rapacuronium (converted),2.75 µM
